US20200297749A1, “Methods and Pharmaceutical Composition for Modulation Polarization and Activation of Macrophages” (priority 2015, published 2020)
Residues, ends and D or L forms follow the SMILES beside them. *: point of attachment. Cbz = O=C(OCc1ccccc1)*

Key:
[1] = test system: NLRP3; assay: P2Y2-induced NLRP3 degradation in transfected 293T cells (western blot); format: cell-based; conditions: for NLRP3 degradation: pharmacological inhibition of SRC; for down regulation of NLRP3 by P2Y2: 293T cells co-expressing NLRP3 and GFP-P2Y2
Method: Cells were washed twice with PBS and lysed in appropriated buffer (250 mM NaCl, 0.1% NP-40, 5 mM EDTA, 10 mM Na3VO4, 10 mM NaF, 5 mM DTT, 3 mM Na4P207, 1 mM EGTA, 10 mM Glycerol phosphate, 10 mM Tris-Hcl (pH=7.5) and the protease and phosphatase inhibitors (Roche)). 10-40 μg of protein extracts were run on 4-12% or 10% SDS-PAGE and transferred at 4° C. onto a nitrocellulose membrane (0.2 Micron). After incubation for 2 hours at room temperature with 5% nonfat milk or BSA (Bovine Serum Albumine) in Tris-buffered saline and 0.1% Tween 20 (TBS-Tween), membranes were incubated with primary antibody at 4° C. overnight. […] The primary antibodies against GFP (D5.1), PYK2 (5E2). PYK2Y402*, SRC (36D10), SRCY416*, AMPKα (F6), AMPKT172* (40H9) and LC3A/B were obtained from Cell Signaling. Primary antibodies against IL-1β, CASP1, ASC (TMS1), IRF5, PNX1, Actin and GAPDH were purchased from Abcam. The primary antibodies anti-CAp24 (42-50) and anti-gp120 (2G12) were from NIH (AIDS Research and Reference Reagent Program, Division of AIDS, NIAID). Antibody anti-NLRP3 was from Adipogen (Cryo-2), anti-P2Y2 was from Alomone, anti-ubiquitin (P4D1) was from Santa-Cruz, anti-TOM20 and anti-Flag were from Sigma. For immunoprecipitations, cell pellets were lysed 6 hours after infection or 24 hours after transfection in CHAPS buffer (50 mM Tris-HCl (pH=7.5), 0.50 M NaCl and 0.1% CHAPS) containing protease and phosphatase inhibitors. Anti-NLRP3 (Origene), anti-P2Y2 (Abcam) antibodies were incubated overnight at 4° C. with the cell lysates. The complexes were precipitated by incubation with Protein G Sepharose™ 4 Fast Flow (GE Healthcare). For anti-Flag immunoprecipitations, anti-Flag® M2 affinity Gel (Sigma) were incubated for overnight at 4° C. with the cell lysates. […] Western blots shown are representative of at least of three independent experiments.

[2] = test system: PMA-treated THP-1 macrophages stimulated with lipopolysaccharide and ATP (LPS+ATP); assay: IL-1β secretion by LPS+ATP-stimulated PMA-treated THP-1 macrophages (ELISA); format: cell-based, Human; conditions: for exacerbated IL-1β secretion of P2Y2-inhibited THP-1 macrophages: LPS+ATP stimulation, added 18 hours before; for IL-1β secretion: after stimulation with LPS+ATP; for IL-10 secretion: PMA-treated THP-1 macrophages, LPS+ATP, drug 100 μM during stimulation, FIG. 1a
Method: (§1) Human THP-1 cells were cultured in RPMI 1640 media, supplemented with 10% FBS. THP-1 cells were differentiated by treatment for 3 hours with 100 nM phorbol-12-myristate-13-acetate (PMA, Invivogen). After 2 days THP-1 cells were stimulated first 3 hours with ultrapure LPS from E. coli (10 ng/ml, LPS) and then stimulated for 6 hours with ATP (5 mM, Sigma). Supernatants were used for cytokine assays and cell lysates for western blot analysis. Kaempferol (100 μM, Sigma), OxATP (100 μM, Sigma), Suramine (100 μM, Sigma), or Bafilomycine A1 ([…], TOCRIS) were added during LPS+ATP stimulation, while, PP1 (20 μM, Sigma), PP2 (20 μM, Sigma). MnTBAP (10 μM, Sigma) and NAC (100 μM, Sigma) 18 hours before LPS+ATP stimulations. Commercially available ELISA kits for […] (Ebioscience), IL-10 (BD) or LDH (Roche) were used according to the manufacturers' instructions.

[3] = test system: M2 human monocyte derived macrophages (MDMs); assay: M1 polarization assays in M2 monocyte derived macrophages; format: cell-based
Method: M2 MDMs that express at 100% the differentiation marker CD11b and the scavenger receptor M2 marker CD163 were then seeded (0.5×10^6/ml in macrophage medium+10% FBS), let to be attached on the plates for 2 hours at 37° C. before treatments with interferon γ (IFNγ) (1 μg/0.5×10^6 MDMs), kaempferol (100 μM) or DMSO for control cells. MDMs and supernatants were harvest for flow cytometry and confocal microscopy analysis at 24 hours post-kaempferol treatments and for cytokines IL-10 ELISA analyses at 96 hours post-kaempferol treatments. Expressions of CD163 and IRF5 were respectively determined by flow cytometry and western blot. Release of IL-1β and IL-10 was determined as indicated above by ELISA.

[4] = test system: PMA-differentiated THP-1 macrophages stimulated with LPS+ATP; assay: Viability / LDH release of LPS+ATP-stimulated THP-1 macrophages; format: cell-based, Human; conditions: in comparison with the control
Method: as §1

[5] = test system: LPS+ATP-stimulated PMA-treated THP-1 macrophages; assay: Quantification of ROS production (H2DCFDA, MitoSOX); format: cell-based, Human; conditions: detectable with H2DCFDA or MitoSOX
Method: Mitochondria-associated ROS levels were measured by staining cells with H2DCFDA at 5 μM for 1 hour or with MitoSOX at 0.25 μM for 10 minutes at 37° C. Cells were then washed twice with HBSS solution and suspended in cold HBSS solution containing 1% FBS for FACS analysis^25.

[6] = test system: LPS+ATP-stimulated PMA-treated THP-1 macrophages; assay: Fragmentation of the mitochondrial network (TOM20, Mitotracker Green fluorescence microscopy); format: cell-based, Human; conditions: TOM20 or Mitotracker Green
Method: For immunofluorescence, cells were fixed in 2% paraformaldehyde-PBS for 5 minutes, permeabilized in 0.3% Triton (Sigma) in PBS, and incubated with PBS-FBS 20% for 1 hour, as previously described^39. Mitochondrial fragmentation and actin polymerization were analysed respectively using Mitotracker® Green FM (20 nM, Invitrogen) and Alexa Fluor 488 Phalloidin. For immunohistochemistry, 4-μm sections were cut from the paraffin blocks of the paraformaldehyde fixed tissues from mice, Macaca fascicularis or humans. After paraffin removal, slides were subjected to antigen retrieval by microwave boiling in 1 mmol/l EDTA pH 9.0. Slides were incubated with anti-P2Y2 (Alomone), anti-NLRP3 (Abcam), anti-CD163 (BD laboratories), anti-gp120 (2G12), anti-CD40 (BD laboratories) or anti-CASP1 p10 (Santa Cruz) overnight after permeabilization in 0.3% Triton for 5 minutes and saturation in PBS-FBS 20% for 1 hour. […] Cells were analysed by fluorescent confocal microscopy on Leica SPE (using a 63× objective). […] Mice alveolar macrophages were dissociated from lung (using Lung Dissociation kit from Miltenyi Biotech) and analysed using anti-CD11b (APC-Cy7) (BD laboratories), anti-CD11c (PE-Cy7) (BioLegend), anti-CD40 (eFluo710) (BioLegend), anti-F4/80 (FITC) (ebioscience) and anti-GR-1 (PE) (ebioscience).

[7] = test system: NLRP3 inflammasome; assay: IL-1β maturation under P2Y2 inhibition; format: cell-based; conditions: P2Y2i alone
Method: (§2) Cells were washed twice with PBS and lysed in appropriated buffer (250 mM NaCl, 0.1% NP-40, 5 mM EDTA, 10 mM Na3VO4, 10 mM NaF, 5 mM DTT, 3 mM Na4P207, 1 mM EGTA, 10 mM Glycerol phosphate, 10 mM Tris-Hcl (pH=7.5) and the protease and phosphatase inhibitors (Roche)). 10-40 μg of protein extracts were run on 4-12% or 10% SDS-PAGE and transferred at 4° C. onto a nitrocellulose membrane (0.2 Micron). After incubation for 2 hours at room temperature with 5% nonfat milk or BSA (Bovine Serum Albumine) in Tris-buffered saline and 0.1% Tween 20 (TBS-Tween), membranes were incubated with primary antibody at 4° C. overnight. […] The primary antibodies against GFP (D5.1), PYK2 (5E2). PYK2Y402*, SRC (36D10), SRCY416*, AMPKα (F6), AMPKT172* (40H9) and LC3A/B were obtained from Cell Signaling. Primary antibodies against IL-1β, CASP1, ASC (TMS1), IRF5, PNX1, Actin and GAPDH were purchased from Abcam. The primary antibodies anti-CAp24 (42-50) and anti-gp120 (2G12) were from NIH (AIDS Research and Reference Reagent Program, Division of AIDS, NIAID). Antibody anti-NLRP3 was from Adipogen (Cryo-2), anti-P2Y2 was from Alomone, anti-ubiquitin (P4D1) was from Santa-Cruz, anti-TOM20 and anti-Flag were from Sigma. […]

[8] = test system: NLRP3; assay: NLRP3 ubiquitinylation/degradation in HIV-1NL4-3-infected THP-1 monocytes; format: cell-based, human; conditions: THP-1, HIV-1NL4-3 infection
Method: as §2

[9] = test system: HIV-1NL4-3; assay: HIV-1 permissiveness of THP-1 monocytes (intracellular p24); format: cell-based; conditions: human monocytes THP-1
Method: as §2

[10] = test system: R5-tropic HIV-1BaL; assay: HIV-1BaL replication in human MDMs (p24 release); format: cell-based

With `CC(C)(C)n1nc(-c2ccc(Cl)cc2)c2c(N)ncnc21` [PP2] the NLRP3 degradation [1] was “impaired”.

`CC(=O)N[C@@H](CS)C(=O)O` [N-Acetyl Cysteine] was tested, and the “exacerbated IL-1β secretion of P2Y2-inhibited THP-1 macrophages” value [2] was “blunted”.

With `O=c1ccn([C@@H]2O[C@H](COP(=O)(O)OP(=O)(O)OP(=O)(O)OP(=O)(O)Oc3ccccc3)[C@@H](O)[C@H]2O)c(=O)[nH]1` [MRS2768] the IL-1β secretion [2] was “impaired”.

With `O=c1c(O)c(-c2ccc(O)cc2)oc2cc(O)cc(O)c12` [kaempferol] the IL-10 secretion [2] was “increased”, the IL-10 secretion ([3]; M2 human MDMs, kaempferol 100 μM, FIG. 1c) was “increased” and the “secretion of the M2 cytokine interleukin-10 (IL-10)” value ([3]; MDMs, kaempferol 100 μM, 96 hours, FIG. 1e) was “reduced”. For the same compound, the IL-1β secretion ([3]; MDMs, kaempferol 100 μM, FIG. 1c) was “induction”, the M1 polarization ([3]; MDMs, kaempferol 100 μM, FIG. 1e) was “favoured the M1 polarization” and the “membrane expressions of the M2 markers such as CD163” value ([3]; flow cytometry, 24 hours post-kaempferol) was “diminished”. The “expression of IFN regulatory factor 5 (IRF5)” value ([3]; western blot) was “increased”, the “viability (cell death, pyroptosis)” value [4] was “lost their viability” and the “LPS+ATP-induced ROS production” value [5] was “increased”. The “fragmentation of the mitochondrial network” value [6] was “caused fragmentation” and the IL-1β maturation [7] was “stimulation”.

`O=C(O)c1ccc(/C2=C3\C=CC(=N3)/C(c3ccc(C(=O)O)cc3)=c3/cc/c4[n]3[Mn]([Cl])[n]3c2ccc3/C(c2ccc(C(=O)O)cc2)=C2/C=CC(=N2)\C=4c2ccc(C(=O)O)cc2)cc1` [MnTBAP] was tested, and the “exacerbated IL-1β secretion of P2Y2-inhibited THP-1 macrophages” value [2] was “blunted”.

`O=C1C(=Cc2ccc([N+](=O)[O-])cc2)CS(=O)(=O)CC1=Cc1ccc([N+](=O)[O-])cc1` [G5] was tested, and the “down regulation of NLRP3 by P2Y2” value [1] was “partially inhibited”, the “ubiquitinylation/degradation of NLRP3” value [8] was “increased” and the “HIV-1 permissiveness (intracellular accumulation of p24)” value [9] was “enhanced”.

For `Cc1ccc(C(=O)Nc2ccc(S(=O)(=O)O)c3cc(S(=O)(=O)O)cc(S(=O)(=O)O)c23)cc1NC(=O)c1cccc(NC(=O)Nc2cccc(C(=O)Nc3cc(C(=O)Nc4ccc(S(=O)(=O)O)c5cc(S(=O)(=O)O)cc(S(=O)(=O)O)c45)ccc3C)c2)c1` [suramin], the IL-10 secretion [2] was “increased”.

`CC(C)C[C@@H](C=O)NC(=O)[C@H](CC(C)C)NC(=O)[C@H](CC(C)C)NC(=O)OCc1ccccc1` [MG132] (Cbz-Leu-Leu-Leu-aldehyde) was tested, and the “down regulation of NLRP3 by P2Y2” value [1] was “fully suppressed”.

In the case of `O=c1nc2[nH]c(=O)[nH]c2c([O-])[nH]1.[Na+]` [MSU, monosodium urate crystals], the “p24 antigen release and replication of R5-tropic HIV-1BaL” value [10] is reported as “reduced”.

For `Cc1ccc(-c2nn(C(C)(C)C)c3ncnc(N)c23)cc1` [PP1], the NLRP3 degradation [1] was “impaired”.

`Nc1ncnc2c1ncn2[C@@H](C=O)O[C@@H](C=O)COP(=O)(O)OP(=O)(O)OP(=O)(O)O` [oxidized ATP] was tested, and the IL-1β secretion [2] was “inhibited”.
